# Tested on: hepatocytes
# Assay: In vitro liver fibrosis/toxicity model: relative cell viability of hepatocytes with CCl4-induced injury
# Type: cell-based, Sprague Dawley rats
# Conditions: for relative cell viability: 24 h (day 1)
# Protocol: The procedure regarding in vitro liver fibrosis model is as follows. To create an in vitro toxicity model, we used CCl4 as a known hepatotoxic agent capable of inducing severe hepatotoxicity, ultimately leading to liver fibrosis. Initially, a stock solution of CCl4 was prepared by dissolving it in DMSO to a concentration of 20%. Subsequently, hepatocytes were aliquoted into 15-mL centrifuge tubes. These hepatocytes were subjected to a 10-min toxication process with CCl4 (0.05, 0.075, 0.1, 0.15, 0.2%)-containing culture medium (serum-free). Subsequently, hepatocytes were washed three times with PBS with centrifugation at 50×g for 1 min at 4° C. Thereafter, the supernatant was carefully removed, and the final cell pellet was seeded onto 0.1 mg/mL collagen-coated Petri dish at a density of 5×10^5 cells/mL.
# The procedure regarding relative cell viability and liver-specific function of in vitro HUVEC-covered hepatocyte spheroids embedded in gel cultures is as follows. To assess relative cell viability, separate media formulations were used for 2D dish and 3D gel cultures. Specifically, 10% MTT-containing medium was used for the 2D dish culture, whereas 10% CCK8-containing medium was used for evaluating the cell viability in 3D hydrogel or spheroids. For MTT analysis, after 4-h incubation, half of the supernatant was removed from each well, and an equivalent volume of DMSO was added. Following an additional 10 min of incubation, absorbance was measured at 570 nm. For CCK8 analysis, after 4 h of incubation, 100 μL of the supernatant was transferred to a 96-well plate, and absorbance was measured at 450 nm. To calculate relative cell viability from days 1 to 14, the absorbance value of hepatocytes (or hepatocyte spheroids) in the control group (only gel without cells) measured on day 1 was used as baseline (blank) to exclude the influence of the gel. The absorbance value of each experimental condition was then divided by the value of the blank to obtain relative cell viability.
smiles,measurement,setting,value
"ClC(Cl)(Cl)Cl [CCl4, Carbon tetrachloride]",relative cell viability,CCl4 concentration 0.05%,60.53%±3.19%
same,relative cell viability,CCl4 concentration 0.075%,51.70%±5.99%
same,relative cell viability,CCl4 concentration 0.1%,28.06%±2.29%
same,relative cell viability,CCl4 concentration 0.15%,2.67%±0.25%
same,relative cell viability,CCl4 concentration 0.2%,2.46%±0.63%
same,half-maximal inhibitory concentration (IC50) for hepatocytes,estimated from viability at 24 h,0.075%

# Source: patent US20250066736A1, “HIGH-THROUGHPUT 3D CELL SPHEROID CULTURE CHIP, PREPARATION PROCESS AND USES THEREOF” (National Taiwan University, priority 2023, published 2025)
